{
  "source": "ChEMBL document CHEMBL1143353",
  "about": "“Pyrazolo[1,5-a]-1,3,5-triazine as a purine bioisostere: access to potent cyclin-dependent kinase inhibitor (R)-roscovitine analogue” (J Med Chem, 2009)",
  "key": {"NCI-H23": {"system": "NCI-H23", "test": "cells", "conditions": "Homo sapiens, NCI-H23, 72 h", "description": "Antiproliferative activity against human NCI-H23 cells after 72 hrs by ViaLight assay"}, "CAKI-1": {"system": "CAKI-1", "test": "cells", "conditions": "Homo sapiens, CAKI-1, 72 h", "description": "Antiproliferative activity against human Caki1 cells after 72 hrs by ViaLight assay"}, "NCI-H522": {"system": "NCI-H522", "test": "cells", "conditions": "Homo sapiens, NCI-H522, 72 h", "description": "Antiproliferative activity against human NCI-H522 cells after 72 hrs by ViaLight assay"}, "A498": {"system": "A498", "test": "cells", "conditions": "Homo sapiens, A498, 72 h", "description": "Antiproliferative activity against human A498 cells after 72 hrs by ViaLight assay"}, "SH-SY5Y": {"system": "SH-SY5Y", "test": "Antiproliferative activity against human SH-SY5Y cells after 48 hrs by MTS reduction assay", "format": "functional, cell-based"}, "MDA-MB-231": {"system": "MDA-MB-231", "test": "cells", "conditions": "Homo sapiens, MDA-MB-231, 72 h", "description": "Antiproliferative activity against human MDA-MB-231 cells after 72 hrs by ViaLight assay"}, "PC-3": {"system": "PC-3", "test": "cells", "conditions": "Homo sapiens, PC-3, 72 h", "description": "Antiproliferative activity against human PC3 cells after 72 hrs by ViaLight assay"}, "HCT-116": {"system": "HCT-116", "test": "cells", "conditions": "Homo sapiens, HCT-116, 72 h", "description": "Antiproliferative activity against human HCT116 cells after 72 hrs by ViaLight assay"}, "OVCAR-3": {"system": "OVCAR-3", "test": "cells", "conditions": "Homo sapiens, OVCAR-3, 72 h", "description": "Antiproliferative activity against human OVCAR-3 cells after 72 hrs by ViaLight assay"}, "EKVX": {"system": "EKVX", "test": "cells", "conditions": "Homo sapiens, 72 h", "description": "Antiproliferative activity against human EKVX cells after 72 hrs by ViaLight assay"}, "ACHN": {"system": "ACHN", "test": "cells", "conditions": "Homo sapiens, 72 h", "description": "Antiproliferative activity against human ACHN cells after 72 hrs by ViaLight assay"}, "SK-OV-3": {"system": "SK-OV-3", "test": "cells", "conditions": "Homo sapiens, SK-OV-3, 72 h, read-out: pGI50 (converted)", "description": "Antiproliferative activity against human SKOV3 cells after 72 hrs by ViaLight assay"}, "SNB-75": {"system": "SNB-75", "test": "cells", "conditions": "Homo sapiens, SNB-75, 72 h", "description": "Antiproliferative activity against human SNB75 cells after 72 hrs by ViaLight assay"}, "LOX IMVI": {"system": "LOX IMVI", "test": "cells", "conditions": "Homo sapiens, 72 h", "description": "Antiproliferative activity against human LOXIMVI cells after 72 hrs by ViaLight assay"}, "786-0": {"system": "786-0", "test": "cells", "conditions": "Homo sapiens, 786-0, 72 h", "description": "Antiproliferative activity against human 786-0 cells after 72 hrs by ViaLight assay"}, "HOP-62": {"system": "HOP-62", "test": "cells", "conditions": "Homo sapiens, HOP-62, 72 h", "description": "Antiproliferative activity against human HOP62 cells after 72 hrs by ViaLight assay"}, "RXF 393": {"system": "RXF 393", "test": "cells", "conditions": "Homo sapiens, RXF 393, 72 h", "description": "Antiproliferative activity against human RFX393 cells after 72 hrs by ViaLight assay"}, "SK-MEL-2": {"system": "SK-MEL-2", "test": "cells", "conditions": "Homo sapiens, SK-MEL-2, 72 h", "description": "Antiproliferative activity against human SK-MEL-2 cells after 72 hrs by ViaLight assay"}, "TK-10": {"system": "TK-10", "test": "cells", "conditions": "Homo sapiens, TK-10, 72 h", "description": "Antiproliferative activity against human TK10 cells after 72 hrs by ViaLight assay"}, "T47D": {"system": "T47D", "test": "cells", "conditions": "Homo sapiens, 72 h", "description": "Antiproliferative activity against human T47D cells after 72 hrs by ViaLight assay"}, "SK-MEL-5": {"system": "SK-MEL-5", "test": "cells", "conditions": "Homo sapiens, SK-MEL-5, 72 h", "description": "Antiproliferative activity against human SK-MEL-5 cells after 72 hrs by ViaLight assay"}, "SF-268": {"system": "SF-268", "test": "cells", "conditions": "Homo sapiens, SF-268, 72 h", "description": "Antiproliferative activity against human SF268 cells after 72 hrs by ViaLight assay"}, "OVCAR-5": {"system": "OVCAR-5", "test": "cells", "conditions": "Homo sapiens, OVCAR-5, 72 h", "description": "Antiproliferative activity against human OVCAR5 cells after 72 hrs by ViaLight assay"}, "KM12": {"system": "KM12", "test": "cells", "conditions": "Homo sapiens, KM12, 72 h", "description": "Antiproliferative activity against human KM12 cells after 72 hrs by ViaLight assay"}, "cells": {"test": "cells", "conditions": "Homo sapiens, RPMI8266, 72 h", "description": "Antiproliferative activity against human RPMI8266 cells after 72 hrs by ViaLight assay"}, "MCF7": {"system": "MCF7", "test": "cells", "conditions": "Homo sapiens, MCF7, 72 h", "description": "Antiproliferative activity against human MCF7 cells after 72 hrs by ViaLight assay"}, "NCI-H460": {"system": "NCI-H460", "test": "cells", "conditions": "Homo sapiens, NCI-H460, 72 h", "description": "Antiproliferative activity against human NCI-H460 cells after 72 hrs by ViaLight assay"}, "A549": {"system": "A549", "test": "cells", "conditions": "Homo sapiens, A549, 72 h", "description": "Antiproliferative activity against human A549 cells after 72 hrs by ViaLight assay"}, "DU-145": {"system": "DU-145", "test": "cells", "conditions": "Homo sapiens, DU-145, 72 h", "description": "Antiproliferative activity against human DU145 cells after 72 hrs by ViaLight assay"}},
  "data": [
    {"smiles": "CC[C@H](CO)Nc1nc(NCc2ccccc2)c2ncn(C(C)C)c2n1", "note": "[SELICICLIB]", "values": [
      {"measurement": "GI50", "setting": "NCI-H23", "result": 12.6, "unit": "µM"},
      {"measurement": "TGI", "setting": "NCI-H23", "result": 50.1, "unit": "µM"},
      {"measurement": "GI50", "setting": "NCI-H23; read-out: pGI50 (converted)", "result": 12.6, "unit": "µM"},
      {"measurement": "TGI", "setting": "NCI-H23; read-out: pTGI", "result": 50.1, "unit": "µM"},
      {"measurement": "GI50", "setting": "CAKI-1", "result": 6.3, "unit": "µM"},
      {"measurement": "GI50", "setting": "CAKI-1; read-out: pGI50 (converted)", "result": 12.6, "unit": "µM"},
      {"measurement": "GI50", "setting": "NCI-H522", "result": 15.8, "unit": "µM"},
      {"measurement": "TGI", "setting": "NCI-H522", "result": 63.1, "unit": "µM"},
      {"measurement": "GI50", "setting": "NCI-H522; read-out: pGI50 (converted)", "result": 15.8, "unit": "µM"},
      {"measurement": "TGI", "setting": "NCI-H522; read-out: pTGI", "result": 63.1, "unit": "µM"},
      {"measurement": "GI50", "setting": "A498", "result": 50.1, "unit": "µM"},
      {"measurement": "GI50", "setting": "A498; read-out: pGI50 (converted)", "result": 25.1, "unit": "µM"},
      {"measurement": "IC50", "setting": "SH-SY5Y", "result": 16.1, "unit": "µM"},
      {"measurement": "GI50", "setting": "MDA-MB-231", "result": 39.8, "unit": "µM"},
      {"measurement": "GI50", "setting": "MDA-MB-231; read-out: pGI50 (converted)", "result": 12.6, "unit": "µM"},
      {"measurement": "TGI", "setting": "MDA-MB-231; read-out: pTGI", "result": 12.6, "unit": "µM"},
      {"measurement": "GI50", "setting": "PC-3", "result": 19.9, "unit": "µM"},
      {"measurement": "TGI", "setting": "PC-3", "result": 63.1, "unit": "µM"},
      {"measurement": "GI50", "setting": "PC-3; read-out: pGI50 (converted)", "result": 12.6, "unit": "µM"},
      {"measurement": "GI50", "setting": "HCT-116", "result": 5.01, "unit": "µM"},
      {"measurement": "GI50", "setting": "HCT-116; read-out: pGI50 (converted)", "result": 5.01, "unit": "µM"},
      {"measurement": "GI50", "setting": "OVCAR-3", "result": 12.6, "unit": "µM"},
      {"measurement": "GI50", "setting": "OVCAR-3; read-out: pGI50 (converted)", "result": 12.6, "unit": "µM"},
      {"measurement": "GI50", "setting": "EKVX", "result": 19.9, "unit": "µM"},
      {"measurement": "TGI", "setting": "EKVX", "result": 50.1, "unit": "µM"},
      {"measurement": "GI50", "setting": "EKVX; read-out: pGI50 (converted)", "result": 20, "unit": "µM"},
      {"measurement": "TGI", "setting": "EKVX; read-out: pTGI", "result": 50.1, "unit": "µM"},
      {"measurement": "GI50", "setting": "ACHN", "result": 12.6, "unit": "µM"},
      {"measurement": "GI50", "setting": "ACHN; read-out: pGI50 (converted)", "result": 50.1, "unit": "µM"},
      {"measurement": "GI50", "setting": "SK-OV-3", "result": 6.31, "unit": "µM"},
      {"measurement": "GI50", "setting": "SNB-75", "result": 12.6, "unit": "µM"},
      {"measurement": "TGI", "setting": "SNB-75", "result": 31.6, "unit": "µM"},
      {"measurement": "GI50", "setting": "SNB-75; read-out: pGI50 (converted)", "result": 50.1, "unit": "µM"},
      {"measurement": "GI50", "setting": "LOX IMVI", "result": 12.6, "unit": "µM"},
      {"measurement": "GI50", "setting": "LOX IMVI; read-out: pGI50 (converted)", "result": 20, "unit": "µM"},
      {"measurement": "TGI", "setting": "LOX IMVI; read-out: pTGI", "result": 50.1, "unit": "µM"},
      {"measurement": "GI50", "setting": "786-0", "result": 25.1, "unit": "µM"},
      {"measurement": "GI50", "setting": "HOP-62", "result": 25.1, "unit": "µM"},
      {"measurement": "GI50", "setting": "HOP-62; read-out: pGI50 (converted)", "result": 25.1, "unit": "µM"},
      {"measurement": "GI50", "setting": "RXF 393", "result": 5, "unit": "µM"},
      {"measurement": "GI50", "setting": "RXF 393; read-out: pGI50 (converted)", "result": 6.31, "unit": "µM"},
      {"measurement": "GI50", "setting": "SK-MEL-2", "result": 15.8, "unit": "µM"},
      {"measurement": "TGI", "setting": "SK-MEL-2", "result": 39.8, "unit": "µM"},
      {"measurement": "GI50", "setting": "SK-MEL-2; read-out: pGI50 (converted)", "result": 15.8, "unit": "µM"},
      {"measurement": "TGI", "setting": "SK-MEL-2; read-out: pTGI", "result": 39.8, "unit": "µM"},
      {"measurement": "GI50", "setting": "TK-10", "result": 63.1, "unit": "µM"},
      {"measurement": "GI50", "setting": "TK-10; read-out: pGI50 (converted)", "result": 5.01, "unit": "µM"},
      {"measurement": "GI50", "setting": "T47D", "result": 16.8, "unit": "µM"},
      {"measurement": "GI50", "setting": "T47D; read-out: pGI50 (converted)", "result": 39.8, "unit": "µM"},
      {"measurement": "GI50", "setting": "SK-MEL-5", "result": 10, "unit": "µM"},
      {"measurement": "TGI", "setting": "SK-MEL-5", "result": 31.6, "unit": "µM"},
      {"measurement": "GI50", "setting": "SK-MEL-5; read-out: pGI50 (converted)", "result": 10, "unit": "µM"},
      {"measurement": "TGI", "setting": "SK-MEL-5; read-out: pTGI", "result": 31.6, "unit": "µM"},
      {"measurement": "GI50", "setting": "SF-268", "result": 19.9, "unit": "µM"},
      {"measurement": "GI50", "setting": "SF-268; read-out: pGI50 (converted)", "result": 20, "unit": "µM"},
      {"measurement": "GI50", "setting": "OVCAR-5", "result": 39.8, "unit": "µM"},
      {"measurement": "GI50", "setting": "OVCAR-5; read-out: pGI50 (converted)", "result": 39.8, "unit": "µM"},
      {"measurement": "GI50", "setting": "KM12", "result": 5.01, "unit": "µM"},
      {"measurement": "TGI", "setting": "KM12", "result": 63.1, "unit": "µM"},
      {"measurement": "GI50", "setting": "KM12; read-out: pGI50 (converted)", "result": 5.01, "unit": "µM"},
      {"measurement": "TGI", "setting": "KM12; read-out: pTGI", "result": 63.1, "unit": "µM"},
      {"measurement": "GI50", "setting": "cells", "result": 25.1, "unit": "µM"},
      {"measurement": "GI50", "setting": "cells; read-out: pGI50 (converted)", "result": 25.1, "unit": "µM"},
      {"measurement": "GI50", "setting": "MCF7", "result": 12.6, "unit": "µM"},
      {"measurement": "GI50", "setting": "MCF7; read-out: pGI50 (converted)", "result": 25.1, "unit": "µM"},
      {"measurement": "GI50", "setting": "NCI-H460", "result": 25.1, "unit": "µM"},
      {"measurement": "GI50", "setting": "NCI-H460; read-out: pGI50 (converted)", "result": 25.1, "unit": "µM"},
      {"measurement": "GI50", "setting": "A549", "result": 12.6, "unit": "µM"},
      {"measurement": "GI50", "setting": "A549; read-out: pGI50 (converted)", "result": 12.6, "unit": "µM"},
      {"measurement": "GI50", "setting": "DU-145", "result": 15.8, "unit": "µM"},
      {"measurement": "GI50", "setting": "DU-145; read-out: pGI50 (converted)", "result": 20, "unit": "µM"}
    ]}
  ]
}
